According to patent US9981950B2, “Triazoles as NR2B receptor inhibitors” (Janssen Pharmaceuticals, Inc., priority 2014, dated 2018):

Columns and labels:
rat NR1/NR2B receptor [1] = target: T1, rat NR1/NR2B receptor (Rattus norvegicus (Rat), UniProt P35439+Q00960); experiment: NR2B binding assay: inhibition of specific [3H]-Ifenprodil binding to the rat NR1/NR2B receptor; conditions: rat brain membranes, Hill-plot 2-parameter-model
Description: Inhibition of Specific Binding to the Rat NR1/NR2B Receptor
(§1) Male Wistar rats (180 to 200 g) were killed by suffocation in a CO2 chamber for two minutes. Whole brains without cerebellum were removed and dissected on ice, placed into closed vials and stored at −70° C.
Membrane fractions were prepared and tested using standard techniques. At the time of the assay, 1 g of the brains was placed into 25 ml of 50 mM Tris/10 mM EDTA buffer, pH 7.1, (25 vol. per g of original tissue) and homogenized for 30 sec at 20000 rpm with an Ultraturrax T25 (Jahnke & Kunkel, IKA-Labortechnik, Staufen, Germany). The homogenate was centrifuged at 4° C. for 10 min at 48000 g (OPTIMA L-70, Beckman, Palo Alto, Calif. 94304, USA).
The supernatant was discarded and the pellet was homogenized on ice for 30 sec at 20000 rpm with an Ultraturrax and again centrifuged at 48000 g for 30 minutes at 4° C. The resulted pellet was resuspended in 25 ml of 50 mM Tris/10 mM EDTA buffer, homogenized for 30 sec with an Ultraturrax, aliquoted, frozen at −70° C. and stored until use.
(§2) After thawing on the day of the assay, a 5 ml membrane aliquot was centrifuged at 48000 g for 30 min at 4° C. The pellet was resuspended in 5 ml of 5 mM Tris/1 mM EDTA buffer, pH 7.4, homogenized for 30 sec at 20000 rpm with an Ultraturrax and centrifuged at 48000 g for 30 min at 4° C. This was repeated twice. The final pellet was homogenized in 5 ml of 5 mM Tris/l mM EDTA buffer at 4° C. with an Ultraturrax and used for the Ifenprodil-binding assay as described in the following.
Nonspecific binding was estimated in the presence of […] CP101.606. The samples were incubated for 60 min. at 4° C.
The incubation was terminated by filtration of the membrane preparations using Filtermat B (Pharmacia, Uppsala Sweden) and a Micro Cell Harvester (Skatron, Lier, Norway). The Filtermat B had been presoaked with 1% polyethylene imine and carefully washed with 50 mM Tris/HCl-buffer pH 7.7 after the filtration to separate free and bound radioactivity.
The optimal amount of membrane preparation in the assay had been determined and optimized for each membrane preparation separately before the test.
For pipetting of the incubation mixture we routinely used the robot Biomek2000 (Fa. Beckman).
For determination of IC50 values the Hill-plot, 2-parameter-model was used.

hERG-receptor = hERG-receptor (Homo sapiens (Human), UniProt Q12809); experiment: HERGBD: inhibition of specific 3H-Dofetilide binding to the hERG-receptor; conditions: HEK cell membranes with human ERG, Hill-plot 2-parameter-model
hERG-receptor, sequence (Q12809 whole entry): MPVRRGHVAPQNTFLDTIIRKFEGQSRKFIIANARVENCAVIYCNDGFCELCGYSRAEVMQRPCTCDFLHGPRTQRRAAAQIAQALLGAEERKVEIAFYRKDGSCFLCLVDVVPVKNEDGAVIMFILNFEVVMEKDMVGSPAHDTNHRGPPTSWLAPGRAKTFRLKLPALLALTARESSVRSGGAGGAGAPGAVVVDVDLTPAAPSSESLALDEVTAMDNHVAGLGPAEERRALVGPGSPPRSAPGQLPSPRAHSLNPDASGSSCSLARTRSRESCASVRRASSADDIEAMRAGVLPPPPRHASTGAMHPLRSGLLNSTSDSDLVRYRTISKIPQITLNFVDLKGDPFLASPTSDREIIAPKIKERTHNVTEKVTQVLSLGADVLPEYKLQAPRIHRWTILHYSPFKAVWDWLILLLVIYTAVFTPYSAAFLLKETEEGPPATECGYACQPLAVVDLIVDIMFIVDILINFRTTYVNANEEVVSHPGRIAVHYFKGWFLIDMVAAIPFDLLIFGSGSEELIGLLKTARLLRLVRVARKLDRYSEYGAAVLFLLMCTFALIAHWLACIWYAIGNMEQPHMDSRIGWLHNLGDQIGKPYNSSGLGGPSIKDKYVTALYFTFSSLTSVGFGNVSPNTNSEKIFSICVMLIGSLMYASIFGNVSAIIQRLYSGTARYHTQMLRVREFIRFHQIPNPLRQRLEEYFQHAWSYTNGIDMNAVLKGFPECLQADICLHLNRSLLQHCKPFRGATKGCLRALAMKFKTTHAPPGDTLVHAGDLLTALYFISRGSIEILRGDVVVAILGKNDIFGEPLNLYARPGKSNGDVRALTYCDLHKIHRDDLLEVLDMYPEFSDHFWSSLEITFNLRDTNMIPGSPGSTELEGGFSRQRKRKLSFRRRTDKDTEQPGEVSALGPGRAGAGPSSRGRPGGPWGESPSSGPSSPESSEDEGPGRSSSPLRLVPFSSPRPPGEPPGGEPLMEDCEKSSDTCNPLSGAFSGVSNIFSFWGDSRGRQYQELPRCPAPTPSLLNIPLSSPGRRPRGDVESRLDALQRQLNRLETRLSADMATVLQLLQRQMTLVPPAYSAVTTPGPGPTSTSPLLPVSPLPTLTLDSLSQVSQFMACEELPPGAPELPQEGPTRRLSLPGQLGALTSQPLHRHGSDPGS
Description: Inhibition of Specific Binding to the hERG-Receptor (HERGBD)
A HEK cell line with stable transfected human ERG receptor was used for the assay. The cells were grown adherently and maintained in DULBECCOS' MEM medium with 10% FBS, 1% non-essential amino acids, 1% Penicillin/Streptomycin and 400 μg/ml G418 (Calbiochem).
For binding assays and membrane preparations the cell culture medium was removed, cells were washed with PBS. Crude membranes for radioligand binding experiments were prepared by scraping the cells off the dishes in ice cold 20 mM HEPES/0.1 mM KCl/pH 7.2. The cell suspension was homogenized on ice (Ultra turrax, 3×20 sec.) and the homogenate was spun for 10 min (1° C., 1000 g, OPTIMA, SW28, 2800 U/min). The supernatant was than centrifuged for 40 min at 100000 g (1° C., OPTIMA, SW28, 23000 U/min). The membrane pellet was resuspended in 20 mM HEPES/0.1 mM KCl/pH 7.2, frozen and stored at −80° C.
After thawing on the day of the assay, the membrane suspension was diluted further with 20 mM HEPES/0.1 mM KCl/pH 7.2.
The incubation mixture of 200 μl contained 1.5 nmol/l 3H-Dofetilide, optimized amount of membrane preparation, 20 mM HEPES/0.1 mM KCl/(pH 7.2) and inhibitor in 1% DMSO. Nonspecific binding was estimated in the presence of […] Dofetilide. The samples were incubated for 90 min. at RT.
Binding was terminated by filtration of the incubated membrane preparations using Filtermat B (Pharmacia, Uppsala Sweden) and a Micro Cell Harvester (Skatron, Lier, Norway). The Filtermat B had been presoaked with 1% polyethylenimine and carefully washed with 0.05 M Tris/HCl-buffer pH=7.7 after the filtration to separate free and bound radioactivity. The filters were counted in a scintillation counter (Betaplate 1205, Berthold, Wildbad, Germany) in order to determine the specific binding of [^3H]-Dofetilide.
The optimal amount of membrane preparation in the assay was determined and optimized for each membrane preparation separately in front of using the membranes in compound testing.
For pipetting of the incubation mixture we routinely use the robot Biomek2000 (Fa. Beckman).

rat NR1/NR2B receptor [2] = target: T1, rat NR1/NR2B receptor; experiment: RRNR2BB: inhibition of specific binding to the rat NR1/NR2B receptor; conditions: [3H]-Ifenprodil binding, rat brain membranes, Hill-plot 2-parameter-model
Description: RRNR2BB—Inhibition of Specific Binding to the Rat NR1/NR2B Receptor
as §1
Membrane fractions were prepared and tested using standard techniques. At the time of the assay, 1 g of the brains were placed into 25 ml of 50 mM Tris/10 mM EDTA buffer, pH=7.1, (25 vol. per g of original tissue) and was homogenized for 30 sec at 20000 U/min with an Ultraturrax T25 (Jahnke & Kunkel, IKA-Labortechnik, Staufen, Germany). The homogenate was centrifuged at 4° C. for 10 min at 48000 g (OPTIMA L-70, Beckman, Palo Alto, Calif. 94304, USA). The supernatant was discarded and the pellet was homogenized on ice for 30 sec at 20000 U/min with an Ultraturrax and again centrifuged at 48000 g for 30 minutes at 4° C. The resultant pellet was resuspended in 25 ml of 50 mM Tris/10 mM EDTA buffer, homogenized for 30 sec with an Ultraturrax, aliquoted, frozen at −70° C. and stored until use
as §2, with “aliquote” for “aliquot”, “pH=7.4,” for “pH 7.4,”, “U/min” for “rpm”, “This step” for “This”, “Tris/mM” for “Tris/l mM”, “assay.” for “assay as described in the following.”
Nonspecific binding was estimated in the presence of 10 M CP101.606. The samples were incubated for 60 min. at 4° C.
Binding was terminated by filtration of the incubated membrane preparations using Filtermat B (Pharmacia, Uppsala Sweden) and a Micro Cell Harvester (Skatron, Lier, Norway). The Filtermat B had been presoaked with 1% polyethylenimine and carefully washed with […] Tris/HCl-buffer pH=7.7 after the filtration to separate free and bound radioactivity.
For pipetting of the incubation mixture the robot Biomek2000 (Fa. Beckman) was used.
The IC50 values in the tables below were determined using the Hill-plot, 2-parameter-model.

T1 sequence (Q00960 27-1482, other chains not shown): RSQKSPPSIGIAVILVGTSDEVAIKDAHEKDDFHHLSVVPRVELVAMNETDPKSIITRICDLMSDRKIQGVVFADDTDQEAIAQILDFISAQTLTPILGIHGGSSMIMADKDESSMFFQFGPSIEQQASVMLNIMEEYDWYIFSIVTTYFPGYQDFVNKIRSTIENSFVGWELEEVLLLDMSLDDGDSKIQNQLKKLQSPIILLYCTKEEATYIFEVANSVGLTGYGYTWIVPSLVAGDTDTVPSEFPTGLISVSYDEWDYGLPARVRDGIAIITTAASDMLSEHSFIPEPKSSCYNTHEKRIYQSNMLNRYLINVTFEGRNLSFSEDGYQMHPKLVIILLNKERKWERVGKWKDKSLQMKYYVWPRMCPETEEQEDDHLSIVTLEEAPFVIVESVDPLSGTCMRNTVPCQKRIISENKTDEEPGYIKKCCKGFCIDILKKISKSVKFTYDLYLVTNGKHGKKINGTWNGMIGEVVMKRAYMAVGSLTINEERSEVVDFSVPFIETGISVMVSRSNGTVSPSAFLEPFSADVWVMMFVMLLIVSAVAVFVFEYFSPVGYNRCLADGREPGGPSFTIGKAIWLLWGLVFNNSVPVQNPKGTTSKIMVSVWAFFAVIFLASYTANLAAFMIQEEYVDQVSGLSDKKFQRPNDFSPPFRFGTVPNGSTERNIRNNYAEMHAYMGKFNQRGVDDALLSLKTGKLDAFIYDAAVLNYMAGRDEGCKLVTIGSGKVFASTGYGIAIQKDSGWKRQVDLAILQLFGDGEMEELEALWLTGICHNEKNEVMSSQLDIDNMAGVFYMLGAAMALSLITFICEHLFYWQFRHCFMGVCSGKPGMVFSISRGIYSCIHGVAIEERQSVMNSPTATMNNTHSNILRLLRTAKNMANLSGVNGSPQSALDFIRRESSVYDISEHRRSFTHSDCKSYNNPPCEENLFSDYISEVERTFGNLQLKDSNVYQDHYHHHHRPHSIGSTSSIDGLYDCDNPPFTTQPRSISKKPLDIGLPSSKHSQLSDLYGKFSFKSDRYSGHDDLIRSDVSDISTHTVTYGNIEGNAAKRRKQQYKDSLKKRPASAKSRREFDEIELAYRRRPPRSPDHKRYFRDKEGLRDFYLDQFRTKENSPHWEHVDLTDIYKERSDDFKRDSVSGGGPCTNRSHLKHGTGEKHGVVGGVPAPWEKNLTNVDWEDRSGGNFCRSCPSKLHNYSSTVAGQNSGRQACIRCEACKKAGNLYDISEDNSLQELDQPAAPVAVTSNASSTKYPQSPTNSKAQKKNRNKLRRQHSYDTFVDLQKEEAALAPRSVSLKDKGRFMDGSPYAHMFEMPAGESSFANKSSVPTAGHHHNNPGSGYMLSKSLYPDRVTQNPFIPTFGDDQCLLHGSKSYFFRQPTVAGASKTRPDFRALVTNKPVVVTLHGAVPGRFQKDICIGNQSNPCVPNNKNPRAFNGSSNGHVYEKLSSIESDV

Row | Structure (SMILES) | IC50 (rat NR1/NR2B receptor [1]) [nM] | IC50 (rat NR1/NR2B receptor [2]) [nM] | IC50 (hERG-receptor) [nM]
1 | Cc1nccn1Cc1cn(-c2ccc(F)c(Cl)c2)nn1 [Example 51, 1-(3-Chloro-4-fluoro-phenyl)-4-(2-methyl-imidazol-1-ylmethyl)-1H-[1,2,3]triazole] | 7.01 | 7.01 | 4970
2 | CCCc1nccn1Cc1cn(-c2ccc(Cl)c(Cl)c2)nn1 [Example 34, 1-(3,4-Dichloro-phenyl)-4-(2-propyl-imidazol-1-ylmethyl)-1H-[1,2,3]triazole] | 7.67 | 7.67 | 1120
3 | OCc1nccn1Cc1cn(-c2ccc(Cl)cc2)nn1 [Example 28, 4-(2-Hydroxymethyl-imidazol-1-ylmethyl)-1-(4-chloro-phenyl)-1H-[1,2,3]triazole] | 573 | 573 | 11200
4 | Cc1ccc(-n2cc(Cn3ccnc3C3CC3)nn2)cc1F [Example 63, 4-(2-Cyclopropyl-imidazol-1-ylmethyl)-1-(3-fluoro-4-methyl-phenyl)-1H-[1,2,3]triazole] | 87.1 | 87.1 | 11200
5 | OCCc1nccn1Cc1cn(-c2ccc(Cl)c(Cl)c2)nn1 [Example 40, 4-[2-(2-Hydroxyethyl)-imidazol-1-ylmethyl]-1-(3,4-dichloro-phenyl)-1H-[1,2,3]triazole] | 17.2 | 17.2 | 14700
6 | Clc1ccc(-n2cc(Cn3ncnc3C3CCCC3)nn2)cc1 [Example 14, 1-(4-Chloro-phenyl)-4-(5-cyclopentyl-[1,2,4]triazol-1-ylmethyl)-1H-[1,2,3]triazole] | 12500 | 12500 | 30500
7 | Cc1ccc(-n2cc(Cn3ccnc3C)nn2)cc1F [Example 53, 1-(3-Fluoro-4-methyl-phenyl)-4-(2-methyl-imidazol-1-ylmethyl)-1H-[1,2,3]triazole] | 26.5 | 26.5 | 6410
8 | CC(C)(C)c1nccn1Cc1cn(-c2ccc(Cl)c(Cl)c2)nn1 [Example 38, 4-(2-tert-Butyl-imidazol-1-ylmethyl)-1-(3,4-dichloro-phenyl)-1H-[1,2,3]triazole] | 526 | 526 | 5680

Continued by falling IC50 (rat NR1/NR2B receptor [1]), values first:

Row | IC50 (rat NR1/NR2B receptor [1]) [nM] | IC50 (rat NR1/NR2B receptor [2]) [nM] | Structure (SMILES) | IC50 (hERG-receptor) [nM]
9 | 2680 | 2680 | CS(=O)(=O)c1cccc(-n2cc(Cn3ccnc3CCF)nn2)c1 [Example 80, 4-[2-(2-Fluoro-ethyl)-imidazol-1-ylmethyl]-1-(3-methanesulfonyl-phenyl)-1H-[1,2,3]triazole] | > 100000
10 | 173 | 173 | FC(F)(F)c1ccc(-n2cc(Cn3ccnc3C3CC3)nn2)cc1 [Example 69, 4-(2-Cyclopropyl-imidazol-1-ylmethyl)-1-(4-trifluoromethyl-phenyl)-1H-[1,2,3]triazole] | 4410
11 | 131 | 131 | CC(C)(C)c1nccn1Cc1cn(-c2ccc(F)c(C(F)F)c2)nn1 [Example 87, 1-(3-Difluoromethyl-4-fluoro-phenyl)-4-(2-tert.butyl-imidazol-1-ylmethyl)-1H-[1,2,3]triazole] | 7520
12 | 26.2 | 26.2 | FCCc1nccn1Cc1cn(-c2ccc(Cl)c(Cl)c2)nn1 [Example 41, 1-(3,4-Dichloro-phenyl)-4-[2-(2-fluoro-ethyl)-imidazol-1-ylmethyl]-1H-[1,2,3]triazole] | 13700
13 | 21.2 | 21.2 | Cc1nccn1Cc1cn(-c2ccc(Cl)c(F)c2)nn1 [Example 50, 1-(4-Chloro-3-fluoro-phenyl)-4-(2-methyl-imidazol-1-ylmethyl)-1H-[1,2,3]triazole] | 3390
14 | 17.4 | 17.4 | Cc1nccn1Cc1cn(-c2cccc(C(F)(F)F)c2)nn1 [Example 58, 4-(2-Methyl-imidazol-1-ylmethyl)-1-(3-trifluoromethyl-phenyl)-1H-[1,2,3]triazole] | 15000
15 | 13.5 | 13.5 | Cc1cc(-n2cc(Cn3ccnc3CCF)nn2)ccc1Cl [Example 75, 1-(4-Chloro-3-methyl-phenyl)-4-[2-(2-fluoro-ethyl)-imidazol-1-ylmethyl]-1H-[1,2,3]triazole] | 32800
16 | 7.68 | 7.68 | CCCCc1nccn1Cc1cn(-c2ccc(F)c(Cl)c2)nn1 [Example 45, 4-(2-Butyl-imidazol-1-ylmethyl)-1-(3-chloro-4-fluoro-phenyl)-1H-[1,2,3]triazole] | 539
17 | 6.02 | 6.02 | FCCc1nccn1Cc1cn(-c2ccc(Cl)c(OC(F)F)c2)nn1 [Example 99, 1-(4-Chloro-3-difluoromethoxy-phenyl)-4-[2-(2-fluoro-ethyl)-imidazol-1-ylmethyl]-1H-[1,2,3]triazole] | 23800
18 | 4.65 | 4.65 | CCc1nccn1Cc1cn(-c2ccc(Cl)c(Cl)c2)nn1 [Example 33, 1-(3,4-Dichloro-phenyl)-4-(2-ethyl-imidazol-1-ylmethyl)-1H-[1,2,3]triazole] | 2230
19 | 1.9 | 1.9 | Cc1nccn1Cc1cn(-c2ccc(F)c(OC(F)F)c2)nn1 [Example 100, 1-(3-Difluoromethoxy-4-fluoro-phenyl)-4-(2-methyl-imidazol-1-ylmethyl)-1H-[1,2,3]triazole] | 12800
